Reference: patent publication EP4691468A1, “PHARMACEUTICAL COMPOSITION FOR TREATING INFLAMMATORY BOWEL DISEASE” (EA Pharma Co., Ltd., priority 2023, dated 2024)
Values after ≈ are worked out from the molar mass of the structure shown. Values joined by “and” are separate entries in the source; they are usually repeats but may differ in a detail not shown here. Equal values may be shown once. Read-outs that look alike come from different tables or passages of the source.

Tests used:
[1] = PK Simulation Analysis 1 by superposition method (Phoenix WinNonlin NPS); design: species or system human
Source text: The plasma concentration profile of Compound (2) on day 10 of repeated administration was predicted using the superposition method implemented in the Nonparametric Superposition (NPS) tool of the analysis software Phoenix WinNonlin, applying the single-dose results (Certara L.P.) (Fig. 4). Table 5: Predicted Plasma Concentration (ng/mL) of Compound (2) on Day 10 of Repeated Administration

[2] = test system: MAdCAM-1; assay: Ex vivo MAdCAM-1 binding inhibition rate (PD) of lymphocytes in collected blood, flow cytometry; format: cell-based, human
Method: The MAdCAM-1 binding rate of lymphocytes in plasma was measured using a validated measurement method using the obtained blood samples, and the MAdCAM-1 binding inhibition rate of lymphocytes in plasma was calculated using Excel. Specifically, 5 µL of an 80 mM MnCl2 solution was added to 90 µL of heparinized blood and incubated at room temperature for 10 minutes. A volume of 5 µL of 200 µg/mL recombinant human MAdCAM-1/Fc (R&D Systems) was added to make a total volume of 100 µL, and the mixture was incubated at room temperature for 30 minutes. Subsequently, 1900 µL of BD Phosflow Lyse/Fix Buffer 5X (BD Biosciences) was added, and hemolysis and fixation were performed at 37°C for 10 minutes. After centrifugation for 5 minutes, the supernatant was removed, and 2000 µL of RPMI-1640 medium supplemented with 10% inactivated fetal bovine serum (hereinafter referred to as medium) was added. After centrifugation for 5 minutes, the supernatant was removed and washed. After washing again with the medium, 50 µL of Brilliant Stain Buffer (BD Biosciences), 1.25 µL of MAdCAM-1 FITC (Hycult Biotech), 5 µL of CD4 PE (BD Biosciences), 2.5 µL of CD45RO APC (UCHL1) (BioLegend), 5 µL of CD3 BV421 (SK7) (BioLegend), and 2.5 µL of CD45 BV510 (HI30) (BioLegend) were added, and the mixture was incubated for 30 minutes. After washing with Stain Buffer (BSA) (BD Biosciences), the percentage of MAdCAM-1-positive cells among CD3-positive CD4-positive cells was measured using flow cytometry.
The percentage of MAdCAM-1-positive cells among CD3-positive CD4-positive cells was calculated by subtracting each measured value from the measured value when MAdCAM-1/Fc was not added as a control. […]
The MAdCAM-1 binding inhibition rate (PD) of lymphocytes in plasma was evaluated using collected blood, and the correlation with the plasma concentration (PK) of Compound (2) was plotted (Fig. 5).

[3] = for 12-Hour Post-Dose Trough Values of Compound (2) after Repeated Administration / Average Plasma Concentrations of Compound (2) on Day 10 of Repeated Administration: Compound (1) 200 mg twice daily C-SEDDS
[4] = plasma concentration, MAdCAM-1-positive cells among CD3-positive CD4-positive cells, ex vivo blood of healthy adult males
[5] = Measured Value, Repeated, Twice daily, 400(200×2)/C-SEDDS, day 10

Cc1cc(=O)n(-c2ccc(C[C@H](NC(=O)c3cc(F)c(NS(=O)(=O)c4ccc(NC(=O)C(C)(C)C)cc4)cc3F)C(=O)O)cn2)c(=O)n1C [Compound (2)]
estimated trough value on the 10th day of repeated administration ([1]; 50 mg, 2.5 times the predicted 20 mg value): 2.03 ng/mL
Judgment Trough Value ([1]; estimated, repeated administration at 50 mg, 10th day): B (IC50 (1.9 ng/mL) or higher and less than IC90 (6.9 ng/mL))
correlation of MAdCAM-1 binding inhibition rate (PD) with plasma concentration (PK) ([2]; collected blood, Fig. 5): correlated
IC50 (concentration that causes 50% binding inhibition) [2, 4]: 1.9 ng/mL (≈ 2.72 nM)
IC90 (concentration that causes 90% binding inhibition) [2, 4]: 6.9 ng/mL (≈ 9.88 nM)
increase of plasma concentration (trough value) 12 hours after the second dose on the 10th day of repeated administration ([3]; C-SEDDS 200 mg twice daily, versus single-dose administration): about eightfold
12-Hour Post-Dose Trough Values of Compound (2) after Repeated Administration ([3]; Day 0.5): 2.025 ng/mL
12-Hour Post-Dose Trough Values of Compound (2) after Repeated Administration ([3]; Day 1): 3.653 ng/mL
12-Hour Post-Dose Trough Values of Compound (2) after Repeated Administration ([3]; Day 1.5): 4.250 ng/mL
12-Hour Post-Dose Trough Values of Compound (2) after Repeated Administration ([3]; Day 2): 6.021 ng/mL
12-Hour Post-Dose Trough Values of Compound (2) after Repeated Administration ([3]; Day 2.5): 7.700 ng/mL
12-Hour Post-Dose Trough Values of Compound (2) after Repeated Administration ([3]; Day 3): 7.026 ng/mL
12-Hour Post-Dose Trough Values of Compound (2) after Repeated Administration ([3]; Day 3.5): 7.381 ng/mL
12-Hour Post-Dose Trough Values of Compound (2) after Repeated Administration ([3]; Day 4): 9.303 ng/mL
12-Hour Post-Dose Trough Values of Compound (2) after Repeated Administration ([3]; Day 4.5): 9.167 ng/mL
12-Hour Post-Dose Trough Values of Compound (2) after Repeated Administration ([3]; Day 5): 9.985 ng/mL
12-Hour Post-Dose Trough Values of Compound (2) after Repeated Administration ([3]; Day 5.5): 12.59 ng/mL
12-Hour Post-Dose Trough Values of Compound (2) after Repeated Administration ([3]; Day 6): 11.20 ng/mL
12-Hour Post-Dose Trough Values of Compound (2) after Repeated Administration ([3]; Day 6.5): 10.81 ng/mL
12-Hour Post-Dose Trough Values of Compound (2) after Repeated Administration ([3]; Day 7): 11.82 ng/mL
12-Hour Post-Dose Trough Values of Compound (2) after Repeated Administration ([3]; Day 7.5): 10.83 ng/mL
12-Hour Post-Dose Trough Values of Compound (2) after Repeated Administration ([3]; Day 8): 14.16 ng/mL
12-Hour Post-Dose Trough Values of Compound (2) after Repeated Administration ([3]; Day 8.5): 12.12 ng/mL
12-Hour Post-Dose Trough Values of Compound (2) after Repeated Administration ([3]; Day 9): 15.06 ng/mL
12-Hour Post-Dose Trough Values of Compound (2) after Repeated Administration ([3]; Day 9.5): 12.20 ng/mL
12-Hour Post-Dose Trough Values of Compound (2) after Repeated Administration ([3]; Day 10): 13.69 ng/mL
Average Plasma Concentrations of Compound (2) on Day 10 of Repeated Administration ([3]; Day 10, Time 0.5 h): 11.82 ng/mL
Average Plasma Concentrations of Compound (2) on Day 10 of Repeated Administration ([3]; Day 10, Time 1 h): 10.63 ng/mL
Average Plasma Concentrations of Compound (2) on Day 10 of Repeated Administration ([3]; Day 10, Time 1.5 h): 10.52 ng/mL
Average Plasma Concentrations of Compound (2) on Day 10 of Repeated Administration ([3]; Day 10, Time 2 h): 14.42 ng/mL
Average Plasma Concentrations of Compound (2) on Day 10 of Repeated Administration ([3]; Day 10, Time 2.5 h): 17.31 ng/mL
Average Plasma Concentrations of Compound (2) on Day 10 of Repeated Administration ([3]; Day 10, Time 3 h): 18.02 ng/mL
Average Plasma Concentrations of Compound (2) on Day 10 of Repeated Administration ([3]; Day 10, Time 4 h): 20.07 ng/mL
Average Plasma Concentrations of Compound (2) on Day 10 of Repeated Administration ([3]; Day 10, Time 5 h): 20.59 ng/mL
Average Plasma Concentrations of Compound (2) on Day 10 of Repeated Administration ([3]; Day 10, Time 6 h): 14.19 ng/mL
Average Plasma Concentrations of Compound (2) on Day 10 of Repeated Administration ([3]; Day 10, Time 7 h): 12.13 ng/mL
Average Plasma Concentrations of Compound (2) on Day 10 of Repeated Administration ([3]; Day 10, Time 8 h): 10.93 ng/mL
Average Plasma Concentrations of Compound (2) on Day 10 of Repeated Administration ([3]; Day 10, Time 12 h): 12.20 ng/mL
Average Plasma Concentrations of Compound (2) on Day 10 of Repeated Administration ([3]; Day 10, Time 13 h): 15.64 ng/mL
Average Plasma Concentrations of Compound (2) on Day 10 of Repeated Administration ([3]; Day 10, Time 14 h): 25.37 ng/mL
Average Plasma Concentrations of Compound (2) on Day 10 of Repeated Administration ([3]; Day 10, Time 14.5 h): 25.16 ng/mL
Average Plasma Concentrations of Compound (2) on Day 10 of Repeated Administration ([3]; Day 10, Time 15 h): 22.99 ng/mL
Average Plasma Concentrations of Compound (2) on Day 10 of Repeated Administration ([3]; Day 10, Time 16 h): 20.48 ng/mL
Average Plasma Concentrations of Compound (2) on Day 10 of Repeated Administration ([3]; Day 10, Time 21 h): 13.24 ng/mL
Average Plasma Concentrations of Compound (2) on Day 10 of Repeated Administration ([3]; Day 10, Time 24 h): 13.69 ng/mL
12-Hour Post-Dose Trough Values of Compound (2) after Repeated Administration ([3]; Initial Value): 0.000 ng/mL
Judgment Trough Value [3, 5]: A (IC90 (6.9 ng/mL) or higher)
Plasma Concentration Trough Value [3, 5]: 13.69 ng/mL and 13.7 ng/mL
